Measurements as given in ChEMBL document CHEMBL1140362, “Novel iron-specific fluorescent probes” (Bioorg Med Chem Lett, 2005).
Where “and” joins values, the source holds several entries; their conditions need not be identical. Equal entries are not always repeated.

What was measured:
[1] = Permeability parameter across human erythrocyte ghost membrane was determined by using fluorescence intensity of 10 uM in presence of Diethylenetriamine-penta acetic acid (DTPA); assay type: ADME; details: erythrocytes
Homo sapiens = species on record: Homo sapiens; assay: The fluorescent suspension followed by time was estimated in the presence of Diehtylenetriamine-penta acetic acid; assay type: functional
[2] = The fluorescent suspension followed by time was estimated in the absence of Diehtylenetriamine-penta acetic acid; assay type: functional
[3] = Permeability parameter across human erythrocyte ghost membrane was determined by using fluorescence intensity of 10 uM in absence of Diethylenetriamine-penta acetic acid (DTPA); assay type: ADME; details: erythrocytes

| SMILES | Fluorescence [1] [a.u] | TIME (Homo sapiens) [h] | TIME [2] | Fluorescence [3] |
| --- | --- | --- | --- | --- |
| Cc1cc2[nH]c(=O)c3cc(=O)c(O)cn3c2cc1C | 252 | 0.00667 | – | – |
| O=C1NCCn2cc(O)c(=O)cc21 | 117 | 0.0353 | 0.03 h and 0.0786 h | 127 a.u and 65 a.u |
